Measured values: patent publication US8569344B2, “N-piperidinyl acetamide derivatives as calcium channel blockers” (Zalicus Pharmaceuticals Ltd., priority 2008, dated 2013)
pIC50: −log10 of the molar value.

Experiments:
[1] = biological target: T1, human α1H T-type channels (Homo sapiens, UniProt O95180); experiment: T-type calcium channel block, whole cell patch clamp in HEK cells (α1H); type: cell-based; settings: HEK cells, patch clamp, mainly non-inactivated protocol; values above 10 μM shown as 10 μM; read-out: T-type Calcium Channel Block α1H IC50
T1 construct: expressed in transfected cells; host or cells: HEK 293
T1 sequence (O95180 whole entry): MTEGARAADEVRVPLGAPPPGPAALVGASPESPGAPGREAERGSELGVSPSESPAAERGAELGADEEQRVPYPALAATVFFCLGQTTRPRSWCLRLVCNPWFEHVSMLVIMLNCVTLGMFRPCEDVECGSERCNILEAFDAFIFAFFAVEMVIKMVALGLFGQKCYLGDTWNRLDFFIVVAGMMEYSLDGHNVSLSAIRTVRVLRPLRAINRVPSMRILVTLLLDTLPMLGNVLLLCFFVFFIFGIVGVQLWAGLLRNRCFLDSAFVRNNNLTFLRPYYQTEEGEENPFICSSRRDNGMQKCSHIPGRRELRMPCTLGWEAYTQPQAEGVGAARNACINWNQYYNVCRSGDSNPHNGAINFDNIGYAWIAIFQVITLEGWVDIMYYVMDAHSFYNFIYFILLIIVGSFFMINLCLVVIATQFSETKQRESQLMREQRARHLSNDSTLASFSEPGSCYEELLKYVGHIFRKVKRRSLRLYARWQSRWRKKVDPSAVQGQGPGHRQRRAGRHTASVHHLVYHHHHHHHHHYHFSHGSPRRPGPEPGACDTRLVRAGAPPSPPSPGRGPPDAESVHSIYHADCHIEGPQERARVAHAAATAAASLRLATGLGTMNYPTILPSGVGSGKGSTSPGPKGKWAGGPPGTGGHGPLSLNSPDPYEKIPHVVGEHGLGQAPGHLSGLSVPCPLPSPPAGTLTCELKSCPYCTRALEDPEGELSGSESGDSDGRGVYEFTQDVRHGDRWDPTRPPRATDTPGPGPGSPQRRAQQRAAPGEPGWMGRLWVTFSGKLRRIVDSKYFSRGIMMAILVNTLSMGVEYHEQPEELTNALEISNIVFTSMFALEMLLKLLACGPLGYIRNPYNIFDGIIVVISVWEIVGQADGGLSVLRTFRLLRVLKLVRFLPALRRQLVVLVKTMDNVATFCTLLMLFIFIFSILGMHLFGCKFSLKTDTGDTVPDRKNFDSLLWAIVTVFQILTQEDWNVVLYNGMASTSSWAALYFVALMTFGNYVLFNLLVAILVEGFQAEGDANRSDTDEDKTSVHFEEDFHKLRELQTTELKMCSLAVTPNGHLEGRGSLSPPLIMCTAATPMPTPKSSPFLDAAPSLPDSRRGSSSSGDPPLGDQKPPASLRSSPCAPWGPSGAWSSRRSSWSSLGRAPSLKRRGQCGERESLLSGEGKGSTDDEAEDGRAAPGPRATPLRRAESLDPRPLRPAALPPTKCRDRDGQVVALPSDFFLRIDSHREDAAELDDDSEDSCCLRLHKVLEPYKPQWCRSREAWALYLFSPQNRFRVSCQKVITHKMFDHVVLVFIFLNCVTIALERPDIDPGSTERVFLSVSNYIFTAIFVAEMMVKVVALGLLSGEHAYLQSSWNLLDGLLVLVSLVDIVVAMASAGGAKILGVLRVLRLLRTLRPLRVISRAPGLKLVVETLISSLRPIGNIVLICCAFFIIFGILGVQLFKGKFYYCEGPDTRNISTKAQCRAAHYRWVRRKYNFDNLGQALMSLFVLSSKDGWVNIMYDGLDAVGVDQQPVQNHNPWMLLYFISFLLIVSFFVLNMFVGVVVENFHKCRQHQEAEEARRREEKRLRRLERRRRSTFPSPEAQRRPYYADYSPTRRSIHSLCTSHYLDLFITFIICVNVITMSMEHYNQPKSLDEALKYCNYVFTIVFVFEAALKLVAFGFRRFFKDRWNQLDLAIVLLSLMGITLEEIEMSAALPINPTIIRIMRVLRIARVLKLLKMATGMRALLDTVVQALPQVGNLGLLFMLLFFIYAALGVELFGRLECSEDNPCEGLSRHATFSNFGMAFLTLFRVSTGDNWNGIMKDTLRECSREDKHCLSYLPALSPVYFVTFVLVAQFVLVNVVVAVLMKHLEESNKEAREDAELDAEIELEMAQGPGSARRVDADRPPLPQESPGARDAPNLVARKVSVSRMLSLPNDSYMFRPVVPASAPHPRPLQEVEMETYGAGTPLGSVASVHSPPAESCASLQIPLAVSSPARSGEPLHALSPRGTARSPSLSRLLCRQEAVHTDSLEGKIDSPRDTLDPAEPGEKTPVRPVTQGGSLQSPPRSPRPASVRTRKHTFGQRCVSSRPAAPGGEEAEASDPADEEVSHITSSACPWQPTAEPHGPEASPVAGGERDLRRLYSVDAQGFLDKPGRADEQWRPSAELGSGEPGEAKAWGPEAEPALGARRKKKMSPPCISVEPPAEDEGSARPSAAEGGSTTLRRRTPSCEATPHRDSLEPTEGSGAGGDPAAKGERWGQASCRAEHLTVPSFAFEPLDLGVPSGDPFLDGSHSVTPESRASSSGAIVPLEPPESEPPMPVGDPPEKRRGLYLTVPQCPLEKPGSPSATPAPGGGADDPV

[2] = biological target: T2, human α1G T-type channels (Homo sapiens, UniProt O43497); experiment: T-type calcium channel block, whole cell patch clamp in HEK cells (α1G); type: cell-based; settings: HEK cells, patch clamp, mainly non-inactivated protocol; values above 10 μM shown as 10 μM, below 0.30 μM shown as 0.30 μM; read-out: T-type Calcium Channel Block α1G IC50
T2 construct: expressed in transfected cells; host or cells: HEK 293
T2 sequence (O43497 whole entry): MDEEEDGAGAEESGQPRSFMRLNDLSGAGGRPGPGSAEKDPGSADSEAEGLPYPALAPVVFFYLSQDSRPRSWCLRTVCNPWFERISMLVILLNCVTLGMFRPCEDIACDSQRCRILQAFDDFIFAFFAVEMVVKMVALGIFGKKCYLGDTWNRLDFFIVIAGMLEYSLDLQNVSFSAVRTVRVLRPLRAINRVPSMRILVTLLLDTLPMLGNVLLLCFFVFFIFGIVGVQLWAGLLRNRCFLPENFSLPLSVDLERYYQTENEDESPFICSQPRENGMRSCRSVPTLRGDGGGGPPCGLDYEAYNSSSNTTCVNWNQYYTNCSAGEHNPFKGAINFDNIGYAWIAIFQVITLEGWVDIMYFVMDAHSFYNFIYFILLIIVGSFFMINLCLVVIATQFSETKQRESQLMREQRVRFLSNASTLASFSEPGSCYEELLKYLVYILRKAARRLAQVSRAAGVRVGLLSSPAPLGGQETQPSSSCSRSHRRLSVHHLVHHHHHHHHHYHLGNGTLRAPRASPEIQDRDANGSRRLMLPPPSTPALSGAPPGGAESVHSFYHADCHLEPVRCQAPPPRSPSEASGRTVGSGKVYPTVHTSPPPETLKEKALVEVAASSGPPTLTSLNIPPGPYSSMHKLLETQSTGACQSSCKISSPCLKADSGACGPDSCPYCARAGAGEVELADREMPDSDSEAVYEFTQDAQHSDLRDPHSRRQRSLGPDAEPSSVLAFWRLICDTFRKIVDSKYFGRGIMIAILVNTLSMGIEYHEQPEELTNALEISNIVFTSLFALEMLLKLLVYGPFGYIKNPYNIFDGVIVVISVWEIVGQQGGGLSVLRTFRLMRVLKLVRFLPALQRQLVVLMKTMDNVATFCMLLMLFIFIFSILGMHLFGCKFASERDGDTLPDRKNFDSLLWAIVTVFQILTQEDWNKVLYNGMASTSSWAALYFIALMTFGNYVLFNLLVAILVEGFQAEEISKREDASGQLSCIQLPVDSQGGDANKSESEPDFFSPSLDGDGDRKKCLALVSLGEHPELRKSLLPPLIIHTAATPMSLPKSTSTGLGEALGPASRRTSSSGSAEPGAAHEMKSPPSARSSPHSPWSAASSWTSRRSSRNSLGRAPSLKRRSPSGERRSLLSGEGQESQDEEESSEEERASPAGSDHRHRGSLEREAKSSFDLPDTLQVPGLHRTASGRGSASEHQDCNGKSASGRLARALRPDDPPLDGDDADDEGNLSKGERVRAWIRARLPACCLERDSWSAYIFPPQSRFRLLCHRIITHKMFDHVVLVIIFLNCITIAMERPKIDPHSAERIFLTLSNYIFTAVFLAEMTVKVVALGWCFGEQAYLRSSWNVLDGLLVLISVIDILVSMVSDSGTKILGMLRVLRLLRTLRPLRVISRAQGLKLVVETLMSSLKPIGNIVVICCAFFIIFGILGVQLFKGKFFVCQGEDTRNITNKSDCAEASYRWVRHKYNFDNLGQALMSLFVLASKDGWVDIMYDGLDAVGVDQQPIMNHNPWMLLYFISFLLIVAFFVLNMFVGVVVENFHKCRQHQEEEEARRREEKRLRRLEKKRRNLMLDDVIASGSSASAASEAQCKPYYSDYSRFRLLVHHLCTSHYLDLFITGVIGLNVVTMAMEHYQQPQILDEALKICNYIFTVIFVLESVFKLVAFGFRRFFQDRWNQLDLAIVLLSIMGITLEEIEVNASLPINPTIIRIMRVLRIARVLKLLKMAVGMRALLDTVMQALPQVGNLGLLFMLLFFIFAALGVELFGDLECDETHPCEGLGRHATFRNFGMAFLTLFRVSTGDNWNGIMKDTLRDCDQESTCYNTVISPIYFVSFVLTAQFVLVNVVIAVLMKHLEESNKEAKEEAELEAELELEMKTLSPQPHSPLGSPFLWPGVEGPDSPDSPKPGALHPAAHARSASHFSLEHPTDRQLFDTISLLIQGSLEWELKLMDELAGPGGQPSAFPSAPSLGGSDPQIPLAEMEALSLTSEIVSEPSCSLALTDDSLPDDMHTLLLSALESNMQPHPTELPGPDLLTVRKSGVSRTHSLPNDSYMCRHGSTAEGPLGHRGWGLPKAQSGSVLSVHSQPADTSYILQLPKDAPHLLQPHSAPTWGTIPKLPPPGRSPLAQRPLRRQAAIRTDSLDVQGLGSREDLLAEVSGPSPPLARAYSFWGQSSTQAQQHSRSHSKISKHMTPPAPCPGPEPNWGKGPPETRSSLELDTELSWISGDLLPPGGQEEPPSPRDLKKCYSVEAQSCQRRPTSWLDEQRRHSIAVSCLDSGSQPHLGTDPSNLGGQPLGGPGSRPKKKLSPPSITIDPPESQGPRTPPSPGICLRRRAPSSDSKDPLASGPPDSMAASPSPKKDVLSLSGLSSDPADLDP

Structure (SMILES)	pIC50 [1]	pIC50 [2]
O=C(NCC1CCN(C(=O)CNC2CCCCC2O)CC1)c1cc(F)cc(C(F)(F)F)c1 (stereo not drawn) [Compound 275, 3-fluoro-N-((1-(2-(2-hydroxycyclohexylamino)acetyl)piperidin-4-yl)methyl)-5-(trifluoromethyl)benzamide]	< 5.00	5.70
CC(C(=O)NC(C)(C)C)N1CCC(CNC(=O)c2cc(F)cc(Cl)c2)CC1 (stereo not drawn) [Compound 546, N-((1-(1-(tert-butylamino)-1-oxo-propan-2-yl)piperidin-4-yl)methyl)-3-chloro-5-fluorobenzamide]	6.89	> 6.52
CC(C)(C)C(=O)NCCN1CCC(CNC(=O)c2cccc(C(F)(F)F)c2)CC1 [Compound 296, N-((1-(2-pivalamidoethyl)piperidin-4-yl)methyl)-3-(trifluoromethyl)benzamide]	5.96	6.21
CC(C)(C)OC(=O)NCCN1CCC(CNC(=O)c2cc(Cl)cc(Cl)c2)CC1 [Compound 43, tert-butyl 2-(4-((3,5-dichlorobenzamido)methyl)piperidin-1-yl)ethylcarbamate]	6.82	> 6.52
CC(C)(C)NS(=O)(=O)CCN1CCC(CNC(=O)c2cc(F)cc(C(F)(F)F)c2)CC1 [Compound 514, N-((1-(2-(N-tert-butylsulfamoyl)ethyl)piperidin-4-yl)methyl)-3-fluoro-5-(trifluoromethyl)benzamide]	6.51	> 6.52
CCOC(=O)NC1(CN2CCC(CNC(=O)c3cc(C(F)(F)F)cc(C(F)(F)F)c3)CC2)CCCC1 [Compound 17, ethyl 1-((4-((3,5-bis(trifluoromethyl)benzamido)methyl)piperidin-1-yl)methyl)cyclopentylcarbamate]	6.92	> 6.52
CC(C)(C)S(=O)(=O)NCCN1CCC(CNC(=O)c2cccc(Cl)c2)CC1 [Compound 573, 3-chloro-N-((1-(2-(1,1-dimethylethylsulfonamido)ethyl)piperidin-4-yl)methyl)benzamide]	6.00	5.90
CC(C)(C)ONC(=O)CN1CCC(CNC(=O)c2cc(C(F)(F)F)cc(C(F)(F)F)c2)CC1 [Compound 560, N-((1-(2-(tert-butoxyamino)-2-oxoethyl)piperidin-4-yl)methyl)-3,5-bis(trifluoromethyl)benzamide]	6.23	6.33
O=C(NCC1CCN(CCNS(=O)(=O)C(F)(F)F)CC1)c1cc(Br)cc(Br)c1 [Compound 388, 3,5-dibromo-N-((1-(2-(trifluoromethylsulfonamido)ethyl)piperidin-4-yl)methyl)benzamide]	6.80	> 6.52
CC(C)(C)NC(=O)CN1CCC(CNC(=O)c2ccnc(N3CCCC3)c2)CC1 [Compound 373, N-((1-(2-(tert-butylamino)-2-oxoethyl)piperidin-4-yl)methyl)-2-(pyrrolidin-1-yl)isonicotinamide]	< 5.00	< 5.00
COc1cc(Cl)cc(C(=O)NCC2CCN(CCNS(=O)(=O)C3CC3)CC2)c1 [Compound 322, 3-chloro-N-((1-(2-(cyclopropanesulfonamido)ethyl)piperidin-4-yl)methyl)-5-methoxybenzamide]	5.67	5.39

The next lines start with the values.

pIC50 [1]	pIC50 [2]	Structure (SMILES)
6.11	6.28	CC(C)COC(=O)NC(CN1CCC(CC(=O)NCc2cc(Cl)cc(Cl)c2)CC1)C(C)(C)C (stereo not drawn) [Compound 225, isobutyl 1-(4-(2-(3,5-dichlorobenzyl-amino)-2-oxoethyl)piperidin-1-yl)-3,3-dimethylbutan-2-ylcarbamate]
7.70	> 6.52	COc1cc(F)cc(C(=O)NCC2CCN(CC(=O)NC(C)(C)C(F)(F)F)CC2)c1 [Compound 456, 3-fluoro-5-methoxy-N-((1-(2-oxo-2-(1,1,1-trifluoro-2-methylpropan-2-ylamino)ethyl)piperidin-4-yl)methyl)benzamide]
6.52	> 6.52	O=C(NCC1CCN(CC(=O)N2CCC(F)CC2)CC1)c1cc(C(F)(F)F)cc(C(F)(F)F)c1 [Compound 349, N-((1-(2-(4-fluoropiperidin-1-yl)-2-oxoethyl)piperidin-4-yl)methyl)-3,5-bis(trifluoromethyl)benzamide]
6.25	6.18	COc1cc(C(=O)NCC2CCN(CCNC(=O)CCC(F)(F)F)CC2)cc(C(F)(F)F)c1 [Compound 317, 3-methoxy-N-((1-(2-(4,4,4-trifluorobutanamido)ethyl)piperidin-4-yl)methyl)-5-(trifluoromethyl)benzamide]
5.49	< 5.00	CCCNC(=O)N(C)CCN1CCC(CNC(=O)c2cc(F)cc(C(F)(F)F)c2)CC1 [Compound 526, 3-fluoro-N-((1-(2-(1-methyl-3-propylureido)ethyl)piperidin-4-yl)methyl)-5-(trifluoromethyl)benzamide]
5.54	5.30	O=C(NCC1CCN(CCNS(=O)(=O)C2CC2)CC1)c1ccc(OC(F)(F)F)cc1 [Compound 232, N-((1-(2-(cyclopropanesulfonamido)ethyl)piperidin-4-yl)methyl)-4-(trifluoromethoxy)benzamide]
5.04	< 5.00	O=C(NCC1CCN(CC(=O)N2CCC[C@@H]2C(F)(F)F)CC1)c1cccc(F)c1 [Compound 508, (R)-3-fluoro-N-((1-(2-oxo-2-(2-(trifluoromethyl)pyrrolidin-1-yl)ethyl)piperidin-4-yl)methyl) benzamide]
6.03	6.37	COc1cc(OC)cc(C(=O)NCC2CCN(CCNS(=O)(=O)C(C)(C)C)CC2)c1 [Compound 576, N-((1-(2-(1,1-dimethyethylsulfonamido)ethyl)piperidin-4-yl)methyl)-3,5-dimethoxybenzamide]
< 5.00	5.13	CC(C)NC(=O)CN1CCC(CNC(=O)c2cccc(OC(F)(F)F)c2)CC1 [Compound 444, N-((1-(2-(isopropylamino)-2-oxoethyl)piperidin-4-yl)methyl)-3-(trifluoromethoxy)benzamide]
6.38	6.38	O=C(NCC1CCN(CC(=O)N2CCC[C@@H]2C(F)(F)F)CC1)c1cc(F)cc(Cl)c1 [Compound 504, (R)-3-chloro-5-fluoro-N-((1-(2-oxo-2-(2-(trifluoromethyl)pyrrolidin-1-yl)ethyl)piperidin-4-yl)methyl) benzamide]
6.29	> 6.52	C[C@H]1CC[C@H](NCC(=O)N2CCC(CNC(=O)c3cc(F)cc(C(F)(F)F)c3)CC2)CC1 [Compound 291, 3-fluoro-N-((1-(2-((1r,4r)-4-methylcyclohexylamino)acetyl)piperidin-4-yl)methyl)-5-(trifluoromethyl)benzamide]
5.63	5.78	O=C(NCC1CCN(CCNS(=O)(=O)C2CC2)CC1)c1cccc(C(F)(F)F)c1 [Compound 228, N-((1-(2-(cyclopropanesulfonamido)ethyl)piperidin-4-yl)methyl)-3-(trifluoromethyl)benzamide]
6.07	6.23	O=C(NC1CCCCC1)OCCN1CCC(CNC(=O)c2cc(F)cc(C(F)(F)F)c2)CC1 [Compound 530, 2-(4-((3-fluoro-5-(trifluoromethyl)benzamido)methyl)piperidin-1-yl)ethyl cyclohexylcarbamate]
